From US10520488B2, “Method and measuring device for determination of the growth rate of biofilm” (Helmholtz-Zentrum fuer Infektionsforschung GmbH, priority 2014, dated 2019)

Experiments:
Type in all cases: cell-based, Pseudomonas aeruginosa
[1] = tested on: PA14 biofilms; assay: Impedance analysis (xCELLigence cell index) of PA14 biofilm growth rate / biofilm formation
Protocol: The biomass Pseudomonas aeruginosa had been measured as an exemplary biomass. Eventually also other strains can be analyzed. The 96 E-Plate had been used for a measuring time of 43 hours. The fluid culture medium LB had been introduced into the receptacles together with wild type (WT) PA14, ΔpelA deletion mutant or ΔpqsA, respectively.
A significant linear reduction of the negative cell index occurs after about 35 hours and more preferably in the time frame of the 37 hours to 42 hours. Within this time frame of 37 hours to 42 hours, the directional cell index RK=(cell index[t2]−cell index[t1])/(t2−t1) is decreasing. Thus, for such a short time frame, the value of the cell index change provides the directional cell index RK, which corresponds to the linear relation between the capacitance and the reactance having the general form of a straight line. Optionally, and in particular in case of evaluating longer time frames, the growth rate of biofilm can be calculated as function of the natural logarithm of the cell index, e.g. by the formula RK=ln(cell index[t2]−cell index[t1])/(t2−t1).
The impedance method has also been used to study the effect of antibiotics on biofilm formation of P. aeruginosa PA14. The results of the impact of ciprofloxacin (A), tobramycin (B), and meropenem (C) on biofilm formation of PA14 are shown in FIGS. 8 to 10. As examples, the antibiotics ciprofloxacin (FIGS. 8a)-c)), tobramycin (FIGS. 9a)-c)) and meropenem (FIGS. 10a)-c)) have been tested. All three antibiotics changed the impedance curves in a concentration-dependent manner, indicating effects on biofilm formation.
The effect on impedance was quantified by three parameters at varying antibiotic concentrations:
The first parameter is the time of onset of a linear decrease of the cell index, (FIGS. 8a), 9a) and 10a)).
The second parameter is the duration of a linear decrease of the cell index. This duration was determined by a linear trendline that was fitted to the data with an r^2 value of 0.97 or higher. In the graphs of FIGS. 8a), 9a) and 10a), the black vertical bars represent the time period over which the biofilm formation rate was measured to be steady, based on a straight line assigned with an r^2 of at least 0.97 (n=3 or 4).
The third parameter was the cell index slope during that time period (FIGS. 8b), 9b) and 10b)). These graphs show the concentration dependency of the biofilm formation expressed in the slope/h of the cell index (n=3 or 4).

[2] = tested on: PA14 biofilms; assay: Crystal violet analysis of PA14 biofilms, absorption at 620 nm; settings: added to wild type WT PA14, LB medium, 96-Well-Plate, after 43 hours, compared to WT alone
Protocol: FIG. 5—Diagram of PA 14 biofilms determined after 43 hours with crystal violet by monitoring absorption at 620 nm;
FIG. 5 is a diagram of various types of PA14 biofilms measured by use of the 96-Well-Plate after 43 hours by use of the fluid culture medium LB with crystal violet analysis by monitoring absorption at 620 nm.

[3] = tested on: PA14; assay: Planktonic growth curves of PA14 by OD600 (control experiment)
Text: OD600 indicates the absorbance, or optical density, of a sample measured at a wavelength of 600 nm and indicates the concentration of cells in a liquid.

SMILES: NC[C@H]1O[C@H](O[C@H]2[C@H](O)[C@@H](O[C@H]3O[C@H](CO)[C@@H](O)[C@H](N)[C@H]3O)[C@H](N)C[C@@H]2N)[C@H](N)C[C@@H]1O [tobramycin]
- cell index slope (biofilm formation) ([1]; at increasing concentrations): shallower decline

SMILES: N=C(N)NCCC[C@H](N)C(=O)O [L-Arg, arginine]
- growth of biofilm (crystal violet) [2]: inhibits the growth of biofilm
- directional cell index RK ([1]; 0.4% or 0.8% L-Arg added to wild type WT, evaluation time 37 to 42 hours): about −0.004 /h
- reduction of the biofilm growth rate ([1]; 0.4% or 0.8% L-Arg, PA14 WT, LB, evaluation time 37 to 42 hours): about ½

SMILES: C[C@@H](O)[C@H]1C(=O)N2C(C(=O)O)=C(S[C@@H]3CN[C@H](C(=O)N(C)C)C3)[C@H](C)[C@H]12 [meropenem]
- induction of biofilm formation (cell index slope) ([1]; 0.5 μg/ml): this effect vanished
- cell index slope (biofilm formation) ([1]; concentrations between 0.063 and 0.25 μg/ml): induced biofilm formation

SMILES: O=C(O)c1cn(C2CC2)c2cc(N3CCNCC3)c(F)cc2c1=O [ciprofloxacin]
- impedance curve reflecting biofilm formation ([1]; 0.13 μg/mL): clearly changed the impedance curve
- steady biofilm formation ([1]; 0.25 μg/mL): not observed anymore
- cell index slope (biofilm formation) ([1]; at increasing concentrations): shallower decline
- planktonic growth ([3]; 0.13 μg/mL): not impaired
- planktonic growth ([3]; 0.25 μg/mL): still possible
